Test results taken from patent publication US7342011B2, “Rifamycin analogs and uses thereof” (priority 2003, dated 2008).
Values after ≈ are worked out from the molar mass of the structure shown.

Experiments:
Format in all cases: cell-based
S. aureus = assay: MIC assay, S. aureus
S. pneumo. = assay: MIC assay, S. pneumo.
E. coli = assay: MIC assay, E. coli
E. faecalis = assay: MIC assay, E. faecalis
H. flu = assay: MIC assay, H. flu

Row | Compound | MIC (μg/mL) S. aureus (S. aureus) [µg/mL] | MIC (μg/mL) S. pneumo. (S. pneumo.) [µg/mL] | MIC (μg/mL) E. coli (E. coli) [µg/mL] | MIC (μg/mL) E. faecalis (E. faecalis) [µg/mL] | MIC (μg/mL) H. flu (H. flu) [µg/mL]
1 | CCOC(=O)NCC1CCN(c2cc(O)c3nc4c5c6c7c(C)c(O)c5c(=O)c(c-4oc3c2)NC(=O)/C(C)=C\C=C\[C@H](C)[C@H](O)[C@@H](C)[C@@H](O)[C@@H](C)[C@H](OC(C)=O)[C@H](C)[C@@H](OC)/C=C/O[C@@](C)(O7)C6=O)CC1 [Compound 51, 3′-hydroxy-5′-[4-ethylcarbamylmethyl-1-piperidinyl]benzoxazinorifamycin] | 0.06 (≈ 0.0609 µM) | 0.002 (≈ 0.00203 µM) | 8 (≈ 8.12 µM) | 8 (≈ 8.12 µM) | 0.25 (≈ 0.254 µM)
2 | CO[C@H]1/C=C/O[C@@]2(C)Oc3c(C)c(O)c4c(=O)c(c5sc6cc(N7C[C@@H](C)N(CC8CC8)C[C@@H]7C)ccc6nc-5c4c3C2=O)NC(=O)/C(C)=C\C=C\[C@H](C)[C@H](O)[C@@H](C)[C@@H](O)[C@@H](C)[C@H](OC(C)=O)[C@@H]1C [Compound 68, 5′-[(2S,5R)-4-(cyclopropylmethyl)-2,5-dimethylpiperazinyl]benzthiazinorifamycin] | 0.06 (≈ 0.062 µM) | 0.0005 (≈ 0.000517 µM) | >8 | 2 (≈ 2.07 µM) | 0.5 (≈ 0.517 µM)
3 | CCCNC(=O)NC1CCN(c2cc(O)c3nc4c5c6c7c(C)c(O)c5c(=O)c(c-4oc3c2)NC(=O)C(C)=CC=CC(C)C(O)C(C)C(O)C(C)C(O)C(C)C(OC)C=COC(C)(O7)C6=O)CC1 (stereo not shown) [Compound 26, 25-O-deacetyl-3′-hydroxy-5′-[4-propyluryl-1-piperidinyl]benzoxazinorifamycin] | 0.008 (≈ 0.00849 µM) | 0.00012 (≈ 0.000127 µM) | >8 | 2 (≈ 2.12 µM) | 1 (≈ 1.06 µM)
4 | CO[C@H]1/C=C/O[C@@]2(C)Oc3c(C)c(O)c4c(=O)c(c5oc6cc(N7CCC(C)(N(C)C)CC7)cc(O)c6nc-5c4c3C2=O)NC(=O)/C(C)=C\C=C\[C@H](C)[C@H](O)[C@@H](C)[C@@H](O)[C@@H](C)[C@H](O)[C@@H]1C [Compound 73, 25-O-deacetyl-3′-hydroxy-5′-[4-methyl-4-N,N-dimethylamino-1-piperidinyl]benzoxazinorifamycin] | 0.002 (≈ 0.00222 µM) | 0.00025 (≈ 0.000278 µM) | 2 (≈ 2.22 µM) | 0.03 (≈ 0.0334 µM) | 0.12 (≈ 0.133 µM)
5 | CCOC(=O)NC1CCN(c2cc(O)c3nc4c5c6c7c(C)c(O)c5c(=O)c(c-4oc3c2)NC(=O)/C(C)=C\C=C\[C@H](C)[C@H](O)[C@@H](C)[C@@H](O)[C@@H](C)[C@H](OC(C)=O)[C@H](C)[C@@H](OC)/C=C/O[C@@](C)(O7)C6=O)CC1 [Compound 1] | 0.008 (≈ 0.00824 µM) | 0.00025 (≈ 0.000257 µM) | >8 | 2 (≈ 2.06 µM) | 2 (≈ 2.06 µM)
6 | CO[C@H]1/C=C/O[C@@]2(C)Oc3c(C)c(O)c4c(=O)c(c5sc6cc(N7CCC(N(C)C)CC7)ccc6nc-5c4c3C2=O)NC(=O)/C(C)=C\C=C\[C@H](C)[C@H](O)[C@@H](C)[C@@H](O)[C@@H](C)[C@H](OC(C)=O)[C@@H]1C [Compound 69, 5′-[4-N,N-dimethylamino-1-piperidinyl]benzthiazinorifamycin] | 0.015 (≈ 0.0162 µM) | 0.00025 (≈ 0.00027 µM) | 4 (≈ 4.31 µM) | 0.5 (≈ 0.539 µM) | 0.5 (≈ 0.539 µM)
7 | COC1C=COC2(C)Oc3c(C)c(O)c4c(=O)c(c5oc6cc(N7CCC(NS(C)(=O)=O)CC7)cc(O)c6nc-5c4c3C2=O)NC(=O)C(C)=CC=CC(C)C(O)C(C)C(O)C(C)C(O)C1C (stereo not shown) [Compound 27] | 0.015 (≈ 0.016 µM) | 0.001 (≈ 0.00107 µM) | >8 | 1 (≈ 1.07 µM) | 0.12 (≈ 0.128 µM)
8 | CO[C@H]1/C=C/O[C@@]2(C)Oc3c(C)c(O)c4c(=O)c(c5oc6cc(N7CCC(NC(=O)SC)CC7)cc(O)c6nc-5c4c3C2=O)NC(=O)/C(C)=C\C=C\[C@H](C)[C@H](O)[C@@H](C)[C@@H](O)[C@@H](C)[C@H](OC(C)=O)[C@@H]1C [Compound 45, 3′-hydroxy-5′-[4-S-methylthiocarbamyl-1-piperidinyl]benzoxazinorifamycin] | 0.015 (≈ 0.0154 µM) | 0.001 (≈ 0.00103 µM) | 8 (≈ 8.22 µM) | 4 (≈ 4.11 µM) | 0.5 (≈ 0.514 µM)
